15 compounds from patent US11446287B2, “Compounds and methods for EP300 or CBP modulation and indications therefor” (Opna Immuno-Oncology SA, priority 2019, dated 2022) can be followed below.

This assay deals with T1, Recombinant human BRD4 containing dual bromodomains (BRD4-BD12 (1-477)) (Homo sapiens, UniProt O60885).
T1 construct: Recombinant human BRD4 containing dual bromodomains (BRD4-BD12 (1-477)); made in house; host or cells: E. coli BL21-CodonPlus (DE3), modified pET vector
The assay is described as follows: BRD4 Alphascreen binding assay. Summed up:
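AlphaScreen proximity between Ni-chelate-bound BRD4-BD12 (1-477) and streptavidin-captured H4 K5/K8/K12/K16-acetyl peptide measured after 1 h room-temperature compound incubation and 30 min with 7.5 μg/ml beads. Buffer: 50 mM HEPES pH 7.5, 50 mM NaCl, 0.01% BSA, 0.01% Triton X-100; data plate-normalized and four-parameter fit for IC50.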
In general terms: Bead proximity is the source of the signal in Alpha formats.

For `Cc1noc(C)c1-c1cnc2c(c1)c(-c1ccc(C(=O)O)cc1OC(F)(F)F)c(C)n2-c1ccccn1` [P-0228, 4-(5-(3,5-dimethylisoxazol-4-yl)-2-methyl-1-(pyridin-2-yl)-1H-pyrrolo[2,3-b]pyridin-3-yl)-3-(trifluoromethoxy)benzoic acid], the IC50 (usually the concentration that gives 50% inhibition) lay within 1 to 8 µM.
To `Cc1noc(C)c1-c1cnc2c(-c3ccc(F)cc3F)cn(-c3ccc(C(=O)O)cc3OC(F)(F)F)c2c1` [P-0229, 4-(3-(2,4-difluorophenyl)-6-(3,5-dimethylisoxazol-4-yl)-1H-pyrrolo[3,2-b]pyridin-1-yl)-3-(trifluoromethoxy)benzoic acid] belongs 1 to 8 µM.
With `Cc1noc(C)c1-c1cnc2c(c1)c(-c1c(F)cc(C(=O)O)cc1OC(F)(F)F)cn2C(C1CC1)C1CC1` [P-0230, 4-(1-(dicyclopropylmethyl)-5-(3,5-dimethylisoxazol-4-yl)-1H-pyrrolo[2,3-b]pyridin-3-yl)-3-fluoro-5-(trifluoromethoxy)benzoic acid] the figure was 1 to 8 µM; with `Cc1ccccc1-n1cc(-c2ccc(C(=O)O)cc2OC(F)(F)F)c2cc(-c3c(C)noc3C)cnc21` [P-0231, 4-(5-(3,5-dimethylisoxazol-4-yl)-1-(o-tolyl)-1H-pyrrolo[2,3-b]pyridin-3-yl)-3-(trifluoromethoxy)benzoic acid], 8 to 1000 µM; with `Cc1noc(C)c1-c1cnc2c(c1)c(-c1ccc(C(=O)O)cc1OC(F)(F)F)cn2-c1ccc(F)cc1F` [P-0232, 4-(1-(2,4-difluorophenyl)-5-(3,5-dimethylisoxazol-4-yl)-1H-pyrrolo[2,3-b]pyridin-3-yl)-3-(trifluoromethoxy)benzoic acid], 1 to 8 µM.
To `Cc1noc(C)c1-c1cnc2c(c1)c(-c1ccc(C(=O)O)cc1OC(F)(F)F)cn2-c1cc(F)ccc1F` [P-0233, 4-(1-(2,5-difluorophenyl)-5-(3,5-dimethylisoxazol-4-yl)-1H-pyrrolo[2,3-b]pyridin-3-yl)-3-(trifluoromethoxy)benzoic acid] belongs 1 to 8 µM.
Regarding `Cc1noc(C)c1-c1cnc2c(-c3ccc(C(=O)O)cc3F)c(C(F)(F)F)n([C@@H](C)c3ccccn3)c2c1` [P-0234, (S)-4-(6-(3,5-dimethylisoxazol-4-yl)-1-(1-(pyridin-2-yl)ethyl)-2-(trifluoromethyl)-1H-pyrrolo[3,2-b]pyridin-3-yl)-3-fluorobenzoic acid], the IC50 fell in the range of 1 to 8 µM.
Regarding `Cc1cc(C(=O)O)ccc1-c1c(C(F)(F)F)n([C@@H](C)c2ccccn2)c2cc(-c3c(C)noc3C)cnc12` [P-0235, (S)-4-(6-(3,5-dimethylisoxazol-4-yl)-1-(1-(pyridin-2-yl)ethyl)-2-(trifluoromethyl)-1H-pyrrolo[3,2-b]pyridin-3-yl)-3-methylbenzoic acid], the IC50 was 8 to 1000 µM.
Consider `COc1cc(C(=O)O)ccc1-c1c(C(F)(F)F)n([C@@H](C)c2ccccn2)c2cc(-c3c(C)noc3C)cnc12` [P-0236, (S)-4-(6-(3,5-dimethylisoxazol-4-yl)-1-(1-(pyridin-2-yl)ethyl)-2-(trifluoromethyl)-1H-pyrrolo[3,2-b]pyridin-3-yl)-3-methoxybenzoic acid], for which the IC50 lay within 1 to 8 µM.
As to `Cc1noc(C)c1-c1cnc2c(-c3cn(C)nc3C3CC3)c(C(F)(F)F)n([C@@H](C)c3ccccn3)c2c1` [P-0237, (S)-4-(3-(3-cyclopropyl-1-methyl-1H-pyrazol-4-yl)-1-(1-(pyridin-2-yl)ethyl)-2-(trifluoromethyl)-1H-pyrrolo[3,2-b]pyridin-6-yl)-3,5-dimethylisoxazole], the 50% inhibitory concentration (IC50) was in the range of 1 to 8 µM.
For the compound `Cc1noc(C)c1-c1cnc2c(-c3cc(C(=O)O)ccc3F)c(C(F)(F)F)n([C@@H](C)c3ccccn3)c2c1` [P-0238, (S)-3-(6-(3,5-dimethylisoxazol-4-yl)-1-(1-(pyridin-2-yl)ethyl)-2-(trifluoromethyl)-1H-pyrrolo[3,2-b]pyridin-3-yl)-4-fluorobenzoic acid], the IC50 was 1 to 8 µM.
In the case of `COc1ccc(C(=O)O)cc1-c1c(C(F)(F)F)n([C@@H](C)c2ccccn2)c2cc(-c3c(C)noc3C)cnc12` [P-0239, (S)-3-(6-(3,5-dimethylisoxazol-4-yl)-1-(1-(pyridin-2-yl)ethyl)-2-(trifluoromethyl)-1H-pyrrolo[3,2-b]pyridin-3-yl)-4-methoxybenzoic acid], the 50% inhibitory concentration (IC50) fell in the range of 8 to 1000 µM.
On to `Cc1noc(C)c1-c1cnc2c(-c3cc(F)cc(C(=O)O)c3)c(C(F)(F)F)n([C@@H](C)c3ccccn3)c2c1` [P-0240, (S)-3-(6-(3,5-dimethylisoxazol-4-yl)-1-(1-(pyridin-2-yl)ethyl)-2-(trifluoromethyl)-1H-pyrrolo[3,2-b]pyridin-3-yl)-5-fluorobenzoic acid], for which the IC50 lay in the range of 8 to 1000 µM.
With `Cc1noc(C)c1-c1cnc2c(-c3cc(Cl)cc(C(=O)O)c3)c(C(F)(F)F)n([C@@H](C)c3ccccn3)c2c1` [P-0241, (S)-3-chloro-5-(6-(3,5-dimethylisoxazol-4-yl)-1-(1-(pyridin-2-yl)ethyl)-2-(trifluoromethyl)-1H-pyrrolo[3,2-b]pyridin-3-yl)benzoic acid] the figure was 8 to 1000 µM; with `Cc1noc(C)c1-c1cnc2c(-c3ccc(C(=O)O)c(F)c3)c(C(F)(F)F)n([C@@H](C)c3ccccn3)c2c1` [P-0242, (S)-4-(6-(3,5-dimethylisoxazol-4-yl)-1-(1-(pyridin-2-yl)ethyl)-2-(trifluoromethyl)-1H-pyrrolo[3,2-b]pyridin-3-yl)-2-fluorobenzoic acid], 8 to 1000 µM.
